Reference: patent US20240316196A1, “METHODS AND COMPOSITIONS FOR DIFFERENTIATION OF PLURIPOTENT STEM CELLS AND DERIVED NATURAL KILLER CELLS” (NUWACELL BIOTECHNOLOGIES CO., LTD., priority 2022, published 2024)

Legend:
[1] = system: iNK cells; assay: Stage 3 expansion and maturation of immature iNK cells co-cultured with feeder cells; assay type: cell-based, human; details: IL-18 (10-50 ng/mL) with IL-2 (100 IU/mL) in Stage 3 vs IL-2 only, Day 14 of co-culture (FIG. 13B)
Experimental: (§1) hiPSCs were prepared as described in CN108373998B. On Day −1, Embryoid body (EB) formation (Stage 1-1) was carried out by placing individualized hiPSCs in E8 medium containing 10 μM Blebbistatin in T25 flasks on a bellydancer and culture overnight. On Day 0, lateral mesoderm differentiation (Stage 1-2) was initiated by changing the medium to a Stage 1-2 differentiation medium comprising IF-4 basal medium and supplemented with BMP4 (25 ng/mL), VEGF (15 ng/mL), bFGF (0.5 ng/mL) and CHIR99021 (4 μM) for 2 days. On Day 2, lateral mesoderm differentiation (Stage 1-3) continued for 1 day in a Stage 1-3 differentiation medium comprising IF-4 basal medium and supplemented with BMP4 (25 ng/mL), VEGF (15 ng/mL) and bFGF (0.5 ng/mL) and CHIR99021 (1 μM). On Day 3, HE specification (Stage 1-4) was initiated by adding a Stage 1-4 differentiation medium comprising IF-4 basal medium and supplemented with VEGF (15 ng/mL), bFGF (5 ng/mL), XAV939 (5 μM) for 1 day. […] On Day 14 of co-culture, iNK cells were collected and stained with CD56-PE antibody (BD, #555516), and the percentage of CD56+ cells was analyzed by flow cytometry.
hiPSCs were prepared as described in CN108373998B. […] D-1 and DO cells were analyzed by Microscopy. […] At the end of Stage 1-4, cells were analyzed by Microscopy and FACS. […] At the end of Stage 1-5, cells were analyzed by Microscopy and FACS. […]

[2] = system: K562 cells; assay: Cytotoxicity of Stage 3 iNK cells towards K562 cells (CFSE/7AAD assay); assay type: cell-based; details: added to Stage 3 medium (IL-10 20 ng/mL, IL-18 50 ng/mL); 4 hr co-culture, E:T 3:1 (FIG. 13A)
Experimental: as §1, with “ng/mL), VEGF (50 ng/mL) and” for “ng/mL), VEGF (15 ng/mL) and”, “On Day 11 of co-culture,” for “On Day 14 of co-culture,”, “(BD, #555516), the percentage” for “(BD, #555516), and the percentage”, “flow cytometry. The cytotoxicity of Stage 3 iNK cells towards K562 cells was detected by CFSE/7AAD assay after 4 hr co-culture at E:T of 3:1.” for “flow cytometry.”

IL-18: interleukin added to Stage 3 expansion and maturation medium
expansion fold of iNK cells [1]: improve the expansion fold | cytotoxicity of iNK cells towards K562 cells [2]: significantly improve
